Measurements taken from patent publication US20040126369A1, “Delivery of peroxide-generating enzymes to the vaginal tract” (priority 2002, published 2004).

Assays:
Assay type in all cases: biochemical
[1] = Self-limiting features of peroxide generation, alcohol oxidase-carboxymethylcellulose; conditions: carboxymethylcellulose substrate, 37° C.
Experimental: FIG. 4 is a graphical representation of the effect of pH on hydrogen peroxide production. Depicted is hydrogen peroxide production resulting from alcohol oxidase activity with carboxymethylcellulose as a function of pH (with no initial peroxide added, after agitation for 8 hours at 37° C. in normal atmosphere).
FIG. 5 is a graphical representation of the effect of initial hydrogen peroxide (H2O2) on H2O2 production. Depicted is hydrogen peroxide production resulting from alcohol oxidase activity with carboxymethylcellulose as a function of initial hydrogen peroxide added (at pH 6.3, after agitation for 8 hours at 37° C. in normal atmosphere).
One of the enzyme-substrate combinations, alcohol oxidase-carboxymethylcellulose, was further studied. One unit of enzyme was combined with 0.05 ml of 2.5% carboxymethyl cellulose in a test tube and diluted to 0.5 ml with buffer of appropriate pH. The tubes were placed in an oscillating incubator at 37° C. After 8 hours, the tubes were removed and the solution was assayed for H2O2 level.

[2] = H2O2 production by alcohol oxidase on modified pva/polycap polymer versus unmodified poly (vinyl alcohol); conditions: direct comparison (data not shown)
[3] = Hydrogen peroxide generation by enzymes on substrates; conditions: for μg of H2O2 produced/ml: one unit enzyme, pH 6.3, 37° C., 12 h
Experimental: Seven enzymes, including glucose oxidase, glycerol-3-phosphate oxidase, xanthine oxidase, cholesterol oxidase, galactose oxidase, alcohol oxidase and pyruvate oxidase, were tested for hydrogen peroxide generation on five substrates, including tampon material (e.g., cellulosic materials, including, but not limited to, cotton and rayon fibers), polydextran, carboxymethylcellulose, chitosan, and poly (vinyl alcohol).
One unit of each enzyme was combined with 0.05 ml of a saturated solution (in distilled, deionized water) of each substrate in a test tube and diluted to 0.5 ml with buffer (0.5 M Tris buffer, pH adjusted to 6.3). In the case of insoluble substrates, a piece (approximately 0.25 g) of the substrate was placed in the test tube. The tubes were placed in an oscillating incubator at 37° C. After 12 h, the tubes were removed and the solution was assayed for H2O2 level by an established method (Graf, E. and Penniston, J. T., “Method for Determination of Hydrogen Peroxide, With Its Application Illustrated by Glucose Assay,” Clinical Chemistry, 26, 658-660 (1980)). The results are depicted in Table 2 in μg H2O2 per ml. (For production of hydrogen peroxide over time, see FIG. 1.)

[4] = substrate Tampon Material (cotton)

Substance | enzyme activity as a function of pH ([1]; 8 hours, FIG. 4) | hydrogen peroxide production at pH 6.3 ([1]; pH 6.3, 8 hours) | effect of initial hydrogen peroxide on enzyme activity ([1]; pH 6.3, 8 hours, FIG. 5) | more H2O2 produced on modified pva/polycap polymer than on unmodified poly (vinyl alcohol) [2] | level of H2O2 production compared with the other enzymes ([3]; across the five substrates of Table 2) | μg of H2O2 produced/ml ([3]; substrate CM Cellulose) | μg of H2O2 produced/ml ([3]; substrate Chitosan) | μg of H2O2 produced/ml ([3]; substrate Poly(vinyl alcohol)) | μg of H2O2 produced/ml ([3]; substrate Polydextran) | μg of H2O2 produced/ml [3, 4]
alcohol oxidase | decreased with decreasing pH | high levels of hydrogen peroxide | deactivated in the presence of high concentrations of hydrogen peroxide | 22% | highest level of H2O2 production on most of the substrates | 103.96 μg H2O2 per ml | 9.38 μg H2O2 per ml | 53.20 μg H2O2 per ml | 92.89 μg H2O2 per ml | 97.84 μg H2O2 per ml
cholesterol oxidase | – | – | – | – | – | 4.01 μg H2O2 per ml | 14.09 μg H2O2 per ml | 5.13 μg H2O2 per ml | 3.89 μg H2O2 per ml | 4.92 μg H2O2 per ml
galactose oxidase | – | – | – | – | – | 4.43 μg H2O2 per ml | 8.06 μg H2O2 per ml | 4.34 μg H2O2 per ml | 3.89 μg H2O2 per ml | 6.45 μg H2O2 per ml
glucose oxidase | – | – | – | – | – | 3.31 μg H2O2 per ml | 10.66 μg H2O2 per ml | 4.47 μg H2O2 per ml | 54.69 μg H2O2 per ml | 4.43 μg H2O2 per ml
glycerol-3-phosphate oxidase | – | – | – | – | – | 3.97 μg H2O2 per ml | 9.01 μg H2O2 per ml | 3.85 μg H2O2 per ml | 4.01 μg H2O2 per ml | 4.84 μg H2O2 per ml
pyruvate oxidase | – | – | – | – | – | 9.84 μg H2O2 per ml | 11.94 μg H2O2 per ml | 3.85 μg H2O2 per ml | 9.75 μg H2O2 per ml | 6.66 μg H2O2 per ml
xanthine oxidase | – | – | – | – | – | 6.08 μg H2O2 per ml | 10.00 μg H2O2 per ml | 6.00 μg H2O2 per ml | 5.96 μg H2O2 per ml | 10.46 μg H2O2 per ml
